Experimental data: PubChem BioAssay AID1963850 (Molecular Pharmacology Branch, DTP, NCI, 2024)

System: 192522-019-R-J2-PDC complex tumor spheroid viability
Experiment: Anticancer human tumor 192522-019-R-J2-PDC patient-derived colon adenocarcinoma cell line growth inhibition [POLQ]
Settings: for IC50: curve of first compound; for viability, T/C: stronger effect = lower value
Method: Multicellular complex tumor spheroid response to Polymerase (POL) inhibitors (novobiocin, ART-558, RP6685) in combination with a variety of drugs and investigational agents in selected tumor cell lines
The POL inhibitors (novobiocin, ART-558, and RP6685) were evaluated both individually and in combination with standard of care and investigational anticancer small molecules within a complex spheroid model of solid tumors. . Complex spheroids include a stromal component modeled by human endothelial cells (HUVEC) and fibroblasts modeled by human mesenchymal stem cells (MSCs). The concentration ranges selected for each drug and investigational agent were based upon clinically achievable concentrations if the clinical Cmax of the agent was known.
Compounds. The drugs and investigational agents: novobiocin (NSC847541), ART-558 (NSC835418), RP-6685 (NSC848927), peposertib (NSC802822), ceralasertib (NSC780249), elimusertib (NSC800525), camonsertib (NSC841442), AZD-1390 (NSC803789), olaparib (NSC753686), talazoparib (NSC767125), rucaparib (NSC756644), sotorasib (NSC818433), MRTX-1133 (NSC836407), SN-38 (NSC673596), topotecan (NSC609699), epotoside (NSC141540), doxorubicin (NSC123127), gemcitabine (NSC613327), 5-fluorouracil (NSC19893), paclitaxel (NSC125973), vemurafenib (NSC761431), MSA-2 (NSC828583), SN-011 (NSC837082), adavosertib (NSC754352), prexasertib (NSC758257), carboplatin (NSC241240) and oxaliplatin (NSC266046), were obtained from the National Cancer Institute (NCI) Developmental Therapeutics Program Chemical Repository (21). The FDA-approved anticancer drug set is available from the Developmental Therapeutics Program at https://dtp.cancer.gov/organization/dscb/obtaining/. […] The stock solutions were prepared in dimethyl sulfoxide (DMSO, Sigma-Aldrich, St. Louis, MO, cat. D2650), except for the platinum compounds which were prepared in saline (Quality Biological, Gaithersburg, MD, cat. 114-055-101), at 800-fold the tested concentration and stored at -70 degrees C prior to their use. All drugs and investigational agents were tested over a range starting from a high concentration at or near the clinical Cmax and decreasing in half-log increments. If the clinical Cmax for an agent had not been determined, the highest concentration tested was 10 microM, except for SN-38, which was tested at a high concentration of 1 microM.
Cell Culture. All cells were maintained in an incubator at 37 degrees C and 5% CO2 with 95% humidity. The PDC lines were cultured according to standard operating procedures established by the NCI PDMR (https://pdmr.cancer.gov). Table 3 of the manuscript, lists the cell lines along with the number of the three cell types plated to form the mct-spheroids and media for tumor cell growth. After thawing, all PDC lines, except 997537-175-T-J1-PDC and 415267-285-R-J2-PDC, were cultured in Matrigel-coated flasks prepared with a working solution of 1X Ham's F-12 nutrient mix, without supplementation (Thermo Fisher Scientific, cat. 11765054), 100 U/mL penicillin-streptomycin (Thermo Fisher Scientific, cat. 15140122), and 2.5% Matrigel (Corning Inc., Corning, NY, cat. 354248) for the first three passages. The two PDC lines 997537-175-T-J1-PDC and 415267-285-R-J2-PDC were cultured on uncoated flasks. The 857933-349-R-J2-PDC line was cultured in 6C/Colon 1B media containing advanced DMEM/F-12 (Thermo Fisher Scientific, cat. 12634028), 10 mM HEPES (Thermo Fisher Scientific, cat. 15630080), 1X GlutaMAX supplement (Thermo Fisher Scientific, cat. 35050061), 0.1 mg/mL primocin (InvivoGen, San Diego, CA, cat. ant-pm-2), 10% defined fetal bovine serum, heat inactivated (HyClone Laboratories Inc., Logan, UT, cat. SH30070.03HI), 50% L-WRN conditioned media (ATCC, cat. CRL-3276), 1.25 mM N-Acetyl-L-cysteine (Sigma-Aldrich, cat. A9165), 10 mM nicotinamide (Sigma-Aldrich, cat. N0636), 1X B-27 supplement (Thermo Fisher Scientific, cat. 17504044), 1X N-2 supplement (Thermo Fisher Scientific, cat. […]

[1] = second compound 0.0316 µM, first compound 0.0316 µM
[2] = second compound 0.0316 µM, first compound 0.1 µM
[3] = second compound 0.0316 µM, first compound 0.316 µM
[4] = second compound 0.0316 µM, first compound 1 µM
[5] = second compound 0.0316 µM, first compound 3.16 µM
[6] = second compound 0.0316 µM, first compound 10 µM
[7] = second compound 0.1 µM, first compound 0.0316 µM
[8] = second compound 0.1 µM, first compound 0.1 µM
[9] = second compound 0.1 µM, first compound 0.316 µM
[10] = second compound 0.1 µM, first compound 1 µM
[11] = second compound 0.1 µM, first compound 3.16 µM
[12] = second compound 0.1 µM, first compound 10 µM
[13] = second compound 0.316 µM, first compound 0.0316 µM
[14] = second compound 0.316 µM, first compound 0.1 µM
[15] = second compound 0.316 µM, first compound 0.316 µM
[16] = second compound 0.316 µM, first compound 1 µM
[17] = second compound 0.316 µM, first compound 3.16 µM
[18] = second compound 0.316 µM, first compound 10 µM
[19] = second compound 1 µM, first compound 0.0316 µM
[20] = second compound 1 µM, first compound 0.1 µM
[21] = second compound 1 µM, first compound 0.316 µM
[22] = second compound 1 µM, first compound 1 µM
[23] = second compound 1 µM, first compound 3.16 µM
[24] = second compound 1 µM, first compound 10 µM
[25] = second compound 3.16 µM, first compound 0.0316 µM
[26] = second compound 3.16 µM, first compound 0.1 µM
[27] = second compound 3.16 µM, first compound 0.316 µM
[28] = second compound 3.16 µM, first compound 1 µM
[29] = second compound 3.16 µM, first compound 3.16 µM
[30] = second compound 3.16 µM, first compound 10 µM
[31] = second compound 10 µM, first compound 0.0316 µM
[32] = second compound 10 µM, first compound 0.1 µM
[33] = second compound 10 µM, first compound 0.316 µM
[34] = second compound 10 µM, first compound 1 µM
[35] = second compound 10 µM, first compound 3.16 µM
[36] = second compound 10 µM, first compound 10 µM
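Further: spheroids exposed to drugs for seven days before reading.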
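Wherever viability, T/C is given: 100% = DMSO vehicle control viability in luminescence.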

Work on CC1COCCN1c1cc(C2(O)CC3CCC(C2)O3)c2cnn(-c3ccn[nH]3)c2n1 (stereo unspecified) + Nc1ccc(C#CCN(C(=O)Cc2ncc(C(F)(F)F)cc2C(F)(F)F)c2ccc(F)cc2)nn1 yielded an IC50 (second compound 0.0316 µM) of 0.259 µM, an IC50 (second compound 0.1 µM) of 0.265 µM and an IC50 (second compound 0.316 µM) of 0.263 µM. The IC50 (second compound 1 µM) was 0.276 µM, the IC50 (second compound 3.16 µM) was 0.331 µM and the IC50 (second compound 10 µM) was 0.284 µM. The viability, T/C [1] was 95.5%, the viability, T/C [2] was 76.8% and the viability, T/C [3] was 44.7%. The viability, T/C [4] was 34.4%, the viability, T/C [5] was 44% and the viability, T/C [6] was 50.1%. For the same molecule, the viability, T/C [7] was 99.2%, the viability, T/C [8] was 85.3% and the viability, T/C [9] was 42.2%. For the same molecule, the viability, T/C [10] was 37.6%, the viability, T/C [11] was 41.3% and the viability, T/C [12] was 53%. The viability, T/C [13] was 97.2%, the viability, T/C [14] was 80.5% and the viability, T/C [15] was 44.3%. The viability, T/C [16] was 35.8%, the viability, T/C [17] was 44.7% and the viability, T/C [18] was 48.6%. It also gave a viability, T/C [19] of 97.1%, a viability, T/C [20] of 81.8% and a viability, T/C [21] of 45.9%. It also gave a viability, T/C [22] of 36.9%, a viability, T/C [23] of 45.1% and a viability, T/C [24] of 51.8%. For the same molecule, the viability, T/C [25] was 97.6%, the viability, T/C [26] was 82.3% and the viability, T/C [27] was 51.2%. It also gave a viability, T/C [28] of 36.6%, a viability, T/C [29] of 46.6% and a viability, T/C [30] of 49.6%. It also gave a viability, T/C [31] of 92.4%, a viability, T/C [32] of 74.8% and a viability, T/C [33] of 47.8%. The viability, T/C [34] was 36.4%, the viability, T/C [35] was 51.9% and the viability, T/C [36] was 50%.
CCc1cc2c(N3CCc4c(cc(Cn5ccnc5)cc4-c4cn(C)nc4C(F)(F)F)C3=O)cc(C)nc2c(OC)n1 + Nc1ccc(C#CCN(C(=O)Cc2ncc(C(F)(F)F)cc2C(F)(F)F)c2ccc(F)cc2)nn1 was tested, and the IC50 (second compound 0.0316 µM) was over 10 µM, the IC50 (second compound 0.1 µM) was over 10 µM and the IC50 (second compound 0.316 µM) was over 10 µM. It also gave an IC50 (second compound 1 µM) of over 10 µM, an IC50 (second compound 3.16 µM) of over 10 µM and an IC50 (second compound 10 µM) of over 10 µM. For the same molecule, the viability, T/C [1] was 102%, the viability, T/C [2] was 99.6% and the viability, T/C [3] was 88.1%. It also gave a viability, T/C [4] of 73.7%, a viability, T/C [5] of 63.6% and a viability, T/C [6] of 65.4%. The viability, T/C [7] was 101%, the viability, T/C [8] was 93.6% and the viability, T/C [9] was 77.1%. For the same molecule, the viability, T/C [10] was 76.9%, the viability, T/C [11] was 79.5% and the viability, T/C [12] was 73.1%. The viability, T/C [13] was 105%, the viability, T/C [14] was 100% and the viability, T/C [15] was 89.4%. It also gave a viability, T/C [16] of 75.6%, a viability, T/C [17] of 72.8% and a viability, T/C [18] of 73.4%. For the same molecule, the viability, T/C [19] was 103%, the viability, T/C [20] was 94.2% and the viability, T/C [21] was 90.8%. The viability, T/C [22] was 76.8%, the viability, T/C [23] was 70.8% and the viability, T/C [24] was 69.2%. For the same molecule, the viability, T/C [25] was 101%, the viability, T/C [26] was 95.9% and the viability, T/C [27] was 89.7%. It also gave a viability, T/C [28] of 81.6%, a viability, T/C [29] of 90.6% and a viability, T/C [30] of 81.3%. The viability, T/C [31] was 102%, the viability, T/C [32] was 98.7% and the viability, T/C [33] was 89.1%. For the same molecule, the viability, T/C [34] was 83.4%, the viability, T/C [35] was 92.8% and the viability, T/C [36] was 81%.
O=C(Nc1ccc(O)c(NS(=O)(=O)c2ccc(F)cc2)c1)c1ccc(-c2ccccc2)cc1 + Nc1ccc(C#CCN(C(=O)Cc2ncc(C(F)(F)F)cc2C(F)(F)F)c2ccc(F)cc2)nn1 was tested, and the IC50 (second compound 0.0316 µM) was over 10 µM, the IC50 (second compound 0.1 µM) was over 10 µM and the IC50 (second compound 0.316 µM) was over 10 µM. For the same molecule, the IC50 (second compound 1 µM) was over 10 µM, the IC50 (second compound 3.16 µM) was over 10 µM and the IC50 (second compound 10 µM) was over 10 µM. For the same molecule, the viability, T/C [1] was 104%, the viability, T/C [2] was 101% and the viability, T/C [3] was 94.6%. It also gave a viability, T/C [4] of 99.2%, a viability, T/C [5] of 104% and a viability, T/C [6] of 98.3%. The viability, T/C [7] was 109%, the viability, T/C [8] was 103% and the viability, T/C [9] was 94%. For the same molecule, the viability, T/C [10] was 87.9%, the viability, T/C [11] was 102% and the viability, T/C [12] was 103%. For the same molecule, the viability, T/C [13] was 97.2%, the viability, T/C [14] was 101% and the viability, T/C [15] was 94.9%. It also gave a viability, T/C [16] of 105%, a viability, T/C [17] of 105% and a viability, T/C [18] of 100%. For the same molecule, the viability, T/C [19] was 110%, the viability, T/C [20] was 98.2% and the viability, T/C [21] was 97.5%. The viability, T/C [22] was 91.6%, the viability, T/C [23] was 101% and the viability, T/C [24] was 102%. It also gave a viability, T/C [25] of 99.4%, a viability, T/C [26] of 106% and a viability, T/C [27] of 102%. For the same molecule, the viability, T/C [28] was 110%, the viability, T/C [29] was 107% and the viability, T/C [30] was 111%. For the same molecule, the viability, T/C [31] was 103%, the viability, T/C [32] was 103% and the viability, T/C [33] was 109%. For the same molecule, the viability, T/C [34] was 107%, the viability, T/C [35] was 111% and the viability, T/C [36] was 103%.
